Laboratory results as given in PubChem BioAssay AID220 (DTP/NCI, 2004).
Where “and” joins values, the source holds several entries; their conditions need not be identical. Equal entries are not always repeated. Inconclusive results are not listed. Positions of bridges follow the written chain, without caps; N, C: chain ends. Residues, ends and D or L forms follow the SMILES beside them.

Test system: CD8F1 mice, subcutaneous mammary adenocarcinoma, T/C%
Test: NCI In Vivo Anticancer Drug Screen. Data for tumor model Mammary Adenocarcinoma CD8F1 (subcutaneous) in CD8F1
Conditions: higher = larger tumour
How it was run: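 Ratio of treated to vehicle-control outcome, based on either survival or tumor size, in mice bearing transplantable tumors given the test compound.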

[1] = endpoint: median tumor weight change, dose: 125.0 mg/kg/injection, schedule: Q01DX001 (ip), vehicle: saline with Tween-80
[2] = endpoint: median tumor weight change, dose: 250.0 mg/kg/injection, schedule: Q01DX001 (ip), vehicle: saline with Tween-80
[3] = endpoint: median tumor weight (est.), dose: 25.0 mg/kg/injection, schedule: Q07DX005 (ip), vehicle: Klucel (hydroxypropylcellulose) (HPC)
[4] = endpoint: median tumor weight (est.), dose: 50.0 mg/kg/injection, schedule: Q07DX005 (ip), vehicle: Klucel (hydroxypropylcellulose) (HPC)
[5] = endpoint: median tumor weight (est.), dose: 100.0 mg/kg/injection, schedule: Q07DX005 (ip), vehicle: Klucel (hydroxypropylcellulose) (HPC)
[6] = endpoint: median tumor weight (est.), dose: 200.0 mg/kg/injection, schedule: Q07DX005 (ip), vehicle: Klucel (hydroxypropylcellulose) (HPC)
[7] = endpoint: median tumor weight change, dose: 62.5 mg/kg/injection, schedule: Q01DX001 (ip), vehicle: saline with Tween-80
[8] = endpoint: median tumor weight change, dose: 500.0 mg/kg/injection, schedule: Q01DX001 (ip), vehicle: saline with Tween-80

CC[C@@]1(O)C[C@H](OC2CC(N(C)C)C(OC3CC(O)C(OC4CCC(=O)C(C)O4)C(C)O3)C(C)O2)c2c(cc3c(c2O)C(=O)c2c(O)ccc(O)c2C3=O)[C@H]1C(=O)OC (stereo not given in full)
T/C (endpoint: mean tumor weight, dose: 0.5 mg/kg/injection, schedule: Q07DX006 (ip), vehicle: water): 43 % of control | T/C (endpoint: mean tumor weight, dose: 1.0 mg/kg/injection, schedule: Q07DX006 (ip), vehicle: water): 35 % of control | T/C (endpoint: mean tumor weight, dose: 2.0 mg/kg/injection, schedule: Q07DX006 (ip), vehicle: water): 5 % of control | T/C (endpoint: mean tumor weight, dose: 4.0 mg/kg/injection, schedule: Q07DX006 (ip), vehicle: water): 17 % of control | T/C (endpoint: median tumor weight (est.), dose: 0.5 mg/kg/injection, schedule: Q07DX005 (ip), vehicle: water): 69 % of control and 90 % of control | T/C (endpoint: median tumor weight (est.), dose: 1.0 mg/kg/injection, schedule: Q07DX005 (ip), vehicle: water): 83 % of control | T/C (endpoint: median tumor weight (est.), dose: 2.0 mg/kg/injection, schedule: Q07DX005 (ip), vehicle: water): 37 % of control and 53 % of control | T/C (endpoint: median tumor weight (est.), dose: 4.0 mg/kg/injection, schedule: Q07DX005 (ip), vehicle: water): 8 % of control and 26 % of control | T/C (endpoint: median tumor weight (est.), dose: 8.0 mg/kg/injection, schedule: Q07DX005 (ip), vehicle: water): 1 % of control

O=c1[nH]cccc1O
T/C [1]: 60 % of control | T/C [2]: 35 % of control

CNC(=O)/C=C/C1=CN2C(=O)c3ccc(C)c(O)c3NC(OC)C2C1 (stereo not given)
T/C (endpoint: median tumor weight change, dose: 0.03 mg/kg/injection, schedule: Q01DX001 (ip), vehicle: suspension in saline): 70 % of control | T/C (endpoint: median tumor weight change, dose: 0.07 mg/kg/injection, schedule: Q01DX001 (ip), vehicle: suspension in saline): 51 % of control | T/C (endpoint: median tumor weight change, dose: 0.31 mg/kg/injection, schedule: Q01DX001 (ip), vehicle: saline): 150 % of control | T/C (endpoint: median tumor weight change, dose: 0.62 mg/kg/injection, schedule: Q01DX001 (ip), vehicle: saline): 83 % of control

CC(=O)c1c(O)c(C)c(O)c2c1OC1=CC(=O)C(C(C)=O)C(=O)C12C (stereo not given)
T/C (endpoint: median tumor weight (est.), dose: 12.5 mg/kg/injection, schedule: Q07DX004 (ip), vehicle: gum acacia): 44 % of control | T/C (endpoint: median tumor weight (est.), dose: 12.5 mg/kg/injection, schedule: Q07DX005 (ip), vehicle: gum acacia): 95 % of control | T/C (endpoint: median tumor weight (est.), dose: 25.0 mg/kg/injection, schedule: Q07DX004 (ip), vehicle: gum acacia): 78 % of control | T/C (endpoint: median tumor weight (est.), dose: 25.0 mg/kg/injection, schedule: Q07DX005 (ip), vehicle: gum acacia): 120 % of control | T/C (endpoint: median tumor weight (est.), dose: 50.0 mg/kg/injection, schedule: Q04DX005 (ip), vehicle: gum acacia): 79 % of control and 97 % of control | T/C (endpoint: median tumor weight (est.), dose: 50.0 mg/kg/injection, schedule: Q07DX004 (ip), vehicle: gum acacia): 85 % of control | T/C (endpoint: median tumor weight (est.), dose: 50.0 mg/kg/injection, schedule: Q07DX005 (ip), vehicle: gum acacia): 85 % of control | T/C (endpoint: median tumor weight (est.), dose: 100.0 mg/kg/injection, schedule: Q07DX004 (ip), vehicle: gum acacia): 114 % of control | T/C (endpoint: median tumor weight (est.), dose: 100.0 mg/kg/injection, schedule: Q07DX005 (ip), vehicle: gum acacia): 74 % of control | T/C (endpoint: median tumor weight (est.), dose: 200.0 mg/kg/injection, schedule: Q07DX005 (ip), vehicle: gum acacia): 102 % of control | T/C (endpoint: median tumor weight (est.), dose: 400.0 mg/kg/injection, schedule: Q04DX005 (ip), vehicle: gum acacia): 97 % of control | T/C (endpoint: median tumor weight (est.), dose: 400.0 mg/kg/injection, schedule: Q07DX004 (ip), vehicle: gum acacia): 42 % of control | T/C (endpoint: median tumor weight (est.), dose: 400.0 mg/kg/injection, schedule: Q07DX005 (ip), vehicle: gum acacia): 96 % of control

CCC(C(=O)O)C(=O)O.[NH-]CC1CCCC[N-]1.[Pt+2]
T/C (endpoint: median tumor weight change, dose: 125.0 mg/kg/injection, schedule: Q01DX001 (ip), vehicle: saline): 51 % of control

O=P1(NCCCl)OCCCN1CCCl (stereo not given)
T/C (endpoint: median tumor weight (est.), dose: 25.0 mg/kg/injection, schedule: Q07DX005 (ip), vehicle: saline): 26 % of control and 29 % of control | T/C (endpoint: median tumor weight (est.), dose: 50.0 mg/kg/injection, schedule: Q07DX005 (ip), vehicle: saline): 11 % of control and 12 % of control | T/C (endpoint: median tumor weight (est.), dose: 100.0 mg/kg/injection, schedule: Q07DX005 (ip), vehicle: saline): 6 % of control

O=c1ssc(=Nc2ccccc2)n1-c1ccccc1
T/C [3]: 119 % of control | T/C [4]: 90 % of control | T/C [5]: 70 % of control | T/C [6]: 65 % of control | T/C (endpoint: median tumor weight (est.), dose: 400.0 mg/kg/injection, schedule: Q07DX005 (ip), vehicle: Klucel (hydroxypropylcellulose) (HPC)): 69 % of control

CCC(C)C1NC(=O)C(CC(C)C)NC(=O)C(C(C)C)NC(=O)C2CSSCC(NC1=O)C(=O)N2 (stereo not given) (cyclo(CCVLI); disulfide 1-2; configuration not given here)
T/C (endpoint: median tumor weight change, dose: 0.31 mg/kg/injection, schedule: Q01DX001 (ip), vehicle: Klucel (hydroxypropylcellulose) (HPC)): 78 % of control | T/C (endpoint: median tumor weight change, dose: 0.62 mg/kg/injection, schedule: Q01DX001 (ip), vehicle: Klucel (hydroxypropylcellulose) (HPC)): 118 % of control | T/C (endpoint: median tumor weight change, dose: 1.25 mg/kg/injection, schedule: Q01DX001 (ip), vehicle: Klucel (hydroxypropylcellulose) (HPC)): 74 % of control | T/C (endpoint: median tumor weight change, dose: 2.5 mg/kg/injection, schedule: Q01DX001 (ip), vehicle: Klucel (hydroxypropylcellulose) (HPC)): 94 % of control | T/C (endpoint: median tumor weight change, dose: 5.0 mg/kg/injection, schedule: Q01DX001 (ip), vehicle: Klucel (hydroxypropylcellulose) (HPC)): 111 % of control

NC(=O)c1csc(C2OC(CO)C(O)C2O)n1 (stereo not given)
T/C (endpoint: median tumor weight change, dose: 125.0 mg/kg/injection, schedule: Q01DX001 (ip), vehicle: water): 87 % of control and 96 % of control | T/C (endpoint: median tumor weight change, dose: 500.0 mg/kg/injection, schedule: Q01DX001 (ip), vehicle: water): 11 % of control and 35 % of control | T/C (endpoint: median tumor weight change, dose: 2000.0 mg/kg/injection, schedule: Q01DX001 (ip), vehicle: water): 55 % of control

O=C1N=C(Oc2ccccc2)SC1=O
T/C [7]: 43 % of control | T/C (endpoint: median tumor weight change, dose: 125.0 mg/kg/injection, schedule: Q01DX001 (ip), vehicle: DMSO): 66 % of control

CC(C#N)(C#N)N=Nc1ccc(Cl)cc1Cl
T/C [1]: 161 % of control | T/C [8]: 115 % of control | T/C (endpoint: median tumor weight change, dose: 1000.0 mg/kg/injection, schedule: Q01DX001 (ip), vehicle: saline with Tween-80): 76 % of control

COc1cc(OC)c(NC(=O)ON2C(=O)c3ccccc3C2=O)cc1Cl
T/C (endpoint: median tumor weight change, dose: 31.25 mg/kg/injection, schedule: Q01DX001 (ip), vehicle: saline with Tween-80): 62 % of control | T/C [7]: 81 % of control | T/C [1]: 92 % of control | T/C [8]: 26 % of control

C1CCC2[N-]CC3CCCCC3[N-]CC3CCCCC3[N-]CC3CCCCC3[N-]CC2C1.[Cu] (stereo not given)
T/C (endpoint: median tumor weight (est.), dose: 6.25 mg/kg/injection, schedule: Q07DX005 (ip), vehicle: Klucel (hydroxypropylcellulose) (HPC)): 71 % of control | T/C (endpoint: median tumor weight (est.), dose: 12.5 mg/kg/injection, schedule: Q07DX005 (ip), vehicle: Klucel (hydroxypropylcellulose) (HPC)): 99 % of control | T/C [3]: 80 % of control

C=CC12COC(=O)C(=C)C1C1OC(=O)C(=C)C1C(O)C2 (stereo not given)
T/C (endpoint: mean tumor weight, dose: 5.0 mg/kg/injection, schedule: Q07DX006 (ip), vehicle: saline): 78 % of control

CCC[P+](c1ccccc1)(c1ccccc1)c1ccccc1
T/C (endpoint: mean tumor weight, dose: 3.12 mg/kg/injection, schedule: Q07DX006 (ip), vehicle: saline with Tween-80): 211 % of control | T/C (endpoint: mean tumor weight, dose: 6.25 mg/kg/injection, schedule: Q07DX006 (ip), vehicle: saline with Tween-80): 241 % of control | T/C (endpoint: mean tumor weight, dose: 12.5 mg/kg/injection, schedule: Q07DX006 (ip), vehicle: saline with Tween-80): 40 % of control | T/C (endpoint: mean tumor weight, dose: 25.0 mg/kg/injection, schedule: Q07DX006 (ip), vehicle: saline with Tween-80): 72 % of control | T/C (endpoint: mean tumor weight, dose: 50.0 mg/kg/injection, schedule: Q07DX006 (ip), vehicle: saline with Tween-80): 38 % of control | T/C (endpoint: median tumor weight (est.), dose: 3.12 mg/kg/injection, schedule: Q07DX005 (ip), vehicle: saline with Tween-80): 83 % of control | T/C (endpoint: median tumor weight (est.), dose: 6.25 mg/kg/injection, schedule: Q07DX004 (ip), vehicle: saline with Tween-80): 112 % of control | T/C (endpoint: median tumor weight (est.), dose: 6.25 mg/kg/injection, schedule: Q07DX005 (ip), vehicle: saline with Tween-80): 72 % of control | T/C (endpoint: median tumor weight (est.), dose: 12.5 mg/kg/injection, schedule: Q07DX004 (ip), vehicle: saline with Tween-80): 172 % of control | T/C (endpoint: median tumor weight (est.), dose: 12.5 mg/kg/injection, schedule: Q07DX005 (ip), vehicle: saline with Tween-80): 73 % of control | T/C (endpoint: median tumor weight (est.), dose: 25.0 mg/kg/injection, schedule: Q07DX004 (ip), vehicle: saline with Tween-80): 183 % of control | T/C (endpoint: median tumor weight (est.), dose: 25.0 mg/kg/injection, schedule: Q07DX005 (ip), vehicle: saline with Tween-80): 34 % of control | T/C (endpoint: median tumor weight (est.), dose: 50.0 mg/kg/injection, schedule: Q07DX004 (ip), vehicle: saline with Tween-80): 104 % of control | T/C (endpoint: median tumor weight (est.), dose: 50.0 mg/kg/injection, schedule: Q07DX005 (ip), vehicle: saline with Tween-80): 30 % of control

ClCc1ccc2ccccc2n1
T/C [7]: 69 % of control | T/C [1]: 54 % of control | T/C [2]: 76 % of control

O=S(=O)(N=N/C=C1\C=CC=CN1O)c1cccs1
T/C [1]: 76 % of control | T/C [2]: 88 % of control

COc1cc(OC)c(OC)cc1/C=C\c1ccnc2ccccc12
T/C [4]: 86 % of control | T/C [5]: 55 % of control | T/C [6]: 78 % of control
